Experiment [1] has as its system human CRP40 expression in DRD2 transfected SH-SY5Y human neuroblastoma cells. The experiment can be described thus: Western immunoblotting of BQ/human CRP40 expression in DRD2 transfected SH-SY5Y cells. The settings on record: 100 μM; for BQ expression compared to controls: overnight, DA D2 receptor transfected SH-SY5Y cells. The class given is cell-based.
Procedure: The pcDNA 3.1(+) vector was introduced into SH-S Y5 Y cells by lipofection method (Invitrogen Life Science technology. U.S.A.). Briefly, 24 μg of DRD2 plasmid DNA was mixed with 1.5 ml of Opti MEM media and 60 μl of lipofectamine 2000 reagent was added and mixed with 1.5 ml of Opti MEM media and SH-SY5Y cells. Geneticin-resistant clones stably expressing the D2L receptor were screened by a [3H] spirerone-binding assay and was maintained in RPMI medium (RPMI contained 10% fetal bovine serum, 1 mM glutamate, 50 U/ml of penicillin, and 50 U/ml of streptomycin) with 200 μg/ml of geneticin. Cells were grown to confluency (5-6 days following sub-culturing) in fresh RPMI medium.
SH-SY5Y cells were scraped off and this procedure was repeated a second time. The cells were incubated 5 min, centrifuged at 2000 rpm for 5 min and the supernatant was discarded. The pellet was re-suspended in 0.5 ml 0.35M sucrose buffer (wPMSF), homogenized and centrifuged at 1000 g for 10 min. The supernatant was centrifuged and the pellet was re-suspended in a 0.32M sucrose buffer (wPMSF), homogenized, and centrifuged. The pellet was re-suspended 0.053 ml Tris-EDTA PMSF and labeled as nuclear fraction 1. The supernatant was centrifuged and the resulting supernatant was stored and labeled cytosolic fraction 1. The remaining pellet was re-suspended in 0.150 ml Tris-EDT A-PMSF and labeled mitochondrial fraction 1.
The cells were exposed to the neurotransmitter and/or the neuroleptic (antipsychotic) and left overnight. Western immunoblotting with BQ primary antibody was performed, followed by immunoblotting with polyclonal conjugated horseradish peroxidase secondary antibody.
Experiment [2] has as its system human CRP40. The experiment can be described thus: Immunohistochemistry localization of human CRP40 in post-mortem nucleus accumbens. The conditions noted are these: post-mortem NA slide of schizophrenic patient treated with large doses of HAL. The method, then:
Three slides were chosen from the 60 samples generously donated by The Stanley Foundation. The slides consisted of: 1) control; 2) schizophrenia patient-drug free; 3) schizophrenic patient-15000K, HAL-treated. The slides were incubated with 4% formaldehyde and diluted in PBS for 30 min. Immediately following, washed sections 3 times with PBS for 5 min, each time and dried off each slide as close as possible to the tissue and outlined the section with the hydrophobic pen. The sections were then blocked by incubating sections with 3% normal goat serum*(NGS) (diluted in PBS containing 0.6% Triton X-100) for 1 h. Next, incubated slides with primary human CRP40 polyclonal antibody diluted in PBS containing 0.6% Triton X-100 (and 3% NGS if necessary) overnight at 4° C. (wrapped in aluminum foil). The following day, the slides were washed 3 times with PBS for 5 min, each time, and incubated slides with FITC secondary antibody diluted in PBS containing 0.6% Triton X-100 for 4 h. Next, the sections were washed 6 times in PBS and slides were mounted with appropriate cover-slips and fixed with nail polish.
Three slides containing post mortem brain specimens of the NA were used in immunohistochemistry studies. […] The next day, the slides were analyzed using a confocal microscope (McMaster University).

Experiment [3] concerns the target T1, recombinant human CRP40 (BQ-fusion protein) (Homo sapiens, UniProt P38646).
T1 construct: a fragment of 720 base pairs (Genbank #BQ224193) was amplified; GST (Schistosoma japonicum glutathione S-transferase, pGEX-2T) (N); made in house; host or cells: E. coli BL21 (pGEX-2T)
The experiment can be described thus: [3H]-NPA protein-binding assay with BQ-fusion protein. The conditions noted are these: 100 μM, third of three NPA entries.
Procedure: Briefly, the assays were performed in triplicate and consisted of the following solutions and protocol: 50 mM TRIS, 5.0 mM mgCl2, 1.0 mM EDTA, 0.ImM DTT, 0.ImM PMSF, 100 mg/ml Bacitracin and 5.0 mg/ml soybean trypsin; DA (mw=189.6) was dissolved in 0.1% ascorbic acid; each tube was vortexed briefly and incubated in a shaking water bath at 37° C., for 2 h; receptor binding equipment (Brandel, U.S.A.) washed 3 times with distilled water; then repeated washes in assay buffer, 50 nM TRIS, 1 mM EDTA, pH 7.4; 18 test-tubes were set on the binding platform and fiberglass filter paper was put on the platform. The samples were passed through the filter paper with 3 consecutive washes; placed in the scintillation tubes and 5.0 ml Biodegradable Counting Scintillant was added and radioactive counts were measured (Amersham, U.S.A.).
The first protein binding study involved [3+H]NPA and 3 different concentrations of displacement molecules (DA, NPA), 100 μM, 10 μM and 1 μM, respectively. Following protein binding, DPM counts were performed in a Beckman scintillation counter.

Experiment [4] has as its system 6-OHDA lesioned hemi-Parkinson's rat model. In words: Apomorphine-induced turning behaviour after striatal injection. The conditions noted are these: for apomorphine-induced rotational symptoms: striatal injection on lesioned side. The class given is in vivo. The text has this:
This research study examined the potential of CRP40 as a therapeutic in Parkinson's disease (PD). It has been shown herein that dopamine (DA) can modulate CRP40 expression. Further, knockdown of CRP40 in the medial prefrontal cortex (mPFC) caused deficits in DA-dependant behaviours related to human disease. This study investigated whether the introduction of CRP40 into the lesioned region of a rat model of PD would reduce or reverse symptoms associated with PD compared to control animals. This model is a well-established one in which the nigrostriatal system is hemi-laterally lesioned by injection of the cytotoxin 6-hydroxydopamine (6-OHDA). These animals show phenotypic rotating behaviour as a result of the hemi-lesion.
(§1) The treatment groups were the following: Group 1 (n=3; males) were hemi-lesioned animals treated with a sham injection (CSF) to the Striatum; Group 2 (n=3; males) were hemi-lesioned animals treated with Mortalin2 plasmid injection to the Striatum; Group 3 (n=3; males) were hemi-lesioned animals treated with CRP40 plasmid injection to the Striatum; Group 4 (n=2; males) were hemi-lesioned animals treated with Mortalin2 protein injection to the Striatum; Group 5 (n=2; males) were hemi-lesioned animals treated with CRP40 protein injection to the Striatum; Group 6 (n=3; males) were controls, non-lesioned, and received a CSF injection to the Striatum.
Once the animals were comfortable with the experimenter, they were subjected to a series of behavioural tests for baseline measures. In addition to the apomorphine-induced rotation, other tests included prepulse inhibition (PPI) and locomotor activity tests. The apomorphine-induced rotations test involves giving each animal a subcutaneous injection of apomorphine according to body weight. Since the animals are lesioned hemi-laterally at the nigrostriatal pathway, they show compulsive turning behaviour in a direction contra-lateral to the lesion. For this project, there was interest in the number of rotations each animal made in a ten minute testing period. PPI is a test of sensorimotor gating where animals are exposed to a startling acoustic pulse. This pulse, however, follows a subtle pre-pulse which allows for inhibition of the startle response. Locomotor activity test involves cubic chambers lined with infrared sensors that detect any and all movements made by the animal over a three hour testing period. For this experiment “total distance travelled” measurements were of interest.
Once all baseline data was collected, the rats were placed under gaseous anaesthesia and injected, via cannulae, with one of the five following treatments: CSF sham (Striatal n=3), CRP40 plasmid DNA (Striatal n=3), MOT-2 plasmid DNA (Striatal n=3), CRP40 protein (Striatal n=2), MOT-2 protein (Striatal n=2). […]

The test system is the same in experiment [5]. The experiment can be described thus: HPLC of DA levels in SN and striatum. The class given is in vivo. The conditions noted are these: striatal-injected rats.
From the text: as §1
Once all baseline data was collected, the rats were placed under gaseous anaesthesia and injected, via cannulae, with one of the five following treatments: CSF sham (Striatal n=3), CRP40 plasmid DNA (Striatal n=3), MOT-2 plasmid DNA (Striatal n=3), CRP40 protein (Striatal n=2), MOT-2 protein (Striatal n=2).
After recovery from surgery, all animals were again tested using the same behavioural methods for post-intervention measures. PPI and locomotor activity were tested at 7 and 14 days post-injection, and apomorphine-induced rotation was tested at various time points between days 2 and 14 post-injection. On day 15 post-injection, all rats were sacrificed. […]

T1 sequence (P38646 334-578 E571K/D572N/R574P): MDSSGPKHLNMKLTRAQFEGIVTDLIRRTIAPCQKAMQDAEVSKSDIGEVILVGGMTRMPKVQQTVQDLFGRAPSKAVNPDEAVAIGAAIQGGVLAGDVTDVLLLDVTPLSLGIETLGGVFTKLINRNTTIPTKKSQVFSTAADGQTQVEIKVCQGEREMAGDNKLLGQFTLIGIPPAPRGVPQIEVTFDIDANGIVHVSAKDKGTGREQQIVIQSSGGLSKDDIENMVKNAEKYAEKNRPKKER

In the case of `O=C(CCCN1CCC(O)(c2ccc(Cl)cc2)CC1)c1ccc(F)cc1` [Haloperidol, haloperidol], the “BQ expression compared to controls” value in experiment [1] was “significant increase”. Besides, in experiment [2], the “localization of human CRP40 antibody staining” value is “located almost exclusively within the nucleus”.

Turning to `NCCc1ccc(O)c(O)c1` [DA, dopamine], the “human CRP40 protein expression in the nuclear fraction relative to control cells” value in experiment [1] (SH-SY5Y nuclear fraction) is given as “significant increase”. In addition, the “BQ expression compared to controls” value in experiment [1] was “significant increase”.

As for `CCCN1CCc2cccc3c2[C@H]1Cc1ccc(O)c(O)c1-3` [NPA, N-propylnorapomorphine], in experiment [3], the “amount of displacement of [3H]NPA” value was 64.3%.

B1: CRP40 protein: 346 amino acid catecholamine-regulated protein, SEQ ID NO: 8 (protein, listed as Homo sapiens)
chain: MDSSGPKHLNMKLTRAQFEGIVTDLIRRTIAPCQKAMQDAEVSKSDIGEVILVGGMTRMPKVQQTVQDLFGRAPSKAVNPDEAVAIGAAIQGGVLAGDVTDVLLLDVTPLSLGIETLGGVFTKLINRNTTIPTKKSQVFSTAADGQTQVEIKVCQGEREMAGDNKLLGQFTLIGIPPAPRGVPQIEVTFDIDANGIVHVSAKDKGTGREQQIVIQSSGGLSKDDIENMVKNAEKYAEEDRRKKERVEAVNMAEGIIHDTETKMEEFKDQLPADECNKLKEEISKMRELLARKDSETGENIRQAASSLQQASLKLFEMAYKKMASEREGSGSSGTGEQKEDQKEEKQ
Take B1: the apomorphine-induced rotational symptoms result is “alleviated” in experiment [4] (day 10 post-injection); “beginning to increase again” in experiment [4] (day 14 post-injection); “reversal of rotational symptoms” in experiment [4] (days 4 and 7 post-injection). For the same molecule, the “apomorphine-induced rotational symptoms, overall” value in experiment [4] (striatal injection, no time point stated) was “completely reversed”. For the same molecule, the “levels of DA in the SN & striatum (HPLC)” value in experiment [5] is “increase in dopamine concentration at both the SN and the striatum”.

The values above are taken from patent publication US8470779B2, “Catecholamine regulated protein” (CRP40 Inc., priority 2005, dated 2013).
